Laboratory results taken from ChEMBL document CHEMBL1201861, “Genomics of Drug Sensitity in Cancer screening data, Wellcome Trust Sanger Institute”.

What was measured:
D-263MG = test: cells; format: functional, cell-based, Homo sapiens; conditions: Homo sapiens, D-263MG
Description: SANGER: Inhibition of human D-263MG cell growth in a cell viability assay.

EC-GI-10 = test: cells; format: functional, cell-based, Homo sapiens; conditions: Homo sapiens, EC-GI-10
Description: SANGER: Inhibition of human EC-GI-10 cell growth in a cell viability assay.

EFO-21 = test: cells; format: functional, cell-based, Homo sapiens; conditions: Homo sapiens, EFO-21;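 also: growth inhibition of EFO-21 cells measured with a viability assay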
Description: SANGER: Inhibition of human EFO-21 cell growth in a cell viability assay.

EM-2 = test: cells; format: functional, cell-based; conditions: Homo sapiens;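 also: growth inhibition of EM-2 cells, read out with a cell viability assay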
Description: SANGER: Inhibition of human EM-2 cell growth in a cell viability assay.

EPLC-272H = test: cells; format: functional, cell-based; conditions: Homo sapiens
Description: SANGER: Inhibition of human EPLC-272H cell growth in a cell viability assay.

FaDu = test: cells; format: functional, cell-based, Homo sapiens; conditions: Homo sapiens, FaDu;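 also: cell viability readout of growth inhibition in FaDu cells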
Description: SANGER: Inhibition of human FADU cell growth in a cell viability assay.

GCIY = test: cells; format: functional, cell-based, Homo sapiens; conditions: Homo sapiens, GCIY;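 also: growth inhibition of the human GCIY cell line, read out by a cell viability assay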
Description: SANGER: Inhibition of human GCIY cell growth in a cell viability assay.

H-EMC-SS = test: cells; format: functional, cell-based; conditions: Homo sapiens
Description: SANGER: Inhibition of human H-EMC-SS cell growth in a cell viability assay.

HSC-3 = test: cells; format: functional, cell-based, Homo sapiens; conditions: Homo sapiens, HSC-3
Description: SANGER: Inhibition of human HSC-3 cell growth in a cell viability assay.

IGR-1 = test: cells; format: functional, cell-based, Homo sapiens; conditions: Homo sapiens, IGR-1;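 also: growth inhibition of human IGR-1 cells, read out with a cell viability assay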
Description: SANGER: Inhibition of human IGR-1 cell growth in a cell viability assay.

KNS-62 = test: cells; format: functional, cell-based; conditions: Homo sapiens;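 also: inhibition of cell growth, read out with a cell viability assay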
Description: SANGER: Inhibition of human KNS-62 cell growth in a cell viability assay.

L-428 = test: cells; format: functional, cell-based; conditions: Homo sapiens
Description: SANGER: Inhibition of human L-428 cell growth in a cell viability assay.

NBsusSR = test: cells; format: functional, cell-based; conditions: Homo sapiens;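 also: growth inhibition of the human cell line, read out with a cell viability assay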
Description: SANGER: Inhibition of human NBsusSR cell growth in a cell viability assay.

NCI-H1573 = test: cells; format: functional, cell-based; conditions: Homo sapiens;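 also: growth inhibition of NCI-H1573 cells, read out with a cell viability assay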
Description: SANGER: Inhibition of human NCI-H1573 cell growth in a cell viability assay.

NCI-H1666 = test: cells; format: functional, cell-based; conditions: Homo sapiens;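 also: growth inhibition of the cell line, read out with a cell viability assay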
Description: SANGER: Inhibition of human NCI-H1666 cell growth in a cell viability assay.

NCI-H2342 = test: cells; format: functional, cell-based; conditions: Homo sapiens;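 also: growth inhibition of the cancer cell line, determined with a cell viability assay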
Description: SANGER: Inhibition of human NCI-H2342 cell growth in a cell viability assay.

RPMI-2650 = test: cells; format: functional, cell-based, Homo sapiens; conditions: Homo sapiens, RPMI-2650
Description: SANGER: Inhibition of human RPMI-2650 cell growth in a cell viability assay.

SBC-5 = test: cells; format: functional, cell-based, Homo sapiens; conditions: Homo sapiens, SBC-5;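 also: cell viability assay read-out, IC50 is the concentration that inhibits growth of the cells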
Description: SANGER: Inhibition of human SBC-5 cell growth in a cell viability assay.

SCC-4 = test: cells; format: functional, cell-based, Homo sapiens; conditions: Homo sapiens, SCC-4;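 also: growth inhibition of human SCC-4 cells, read out as cell viability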
Description: SANGER: Inhibition of human SCC-4 cell growth in a cell viability assay.

SNU-387 = test: cells; format: functional, cell-based, Homo sapiens; conditions: Homo sapiens, SNU-387
Description: SANGER: Inhibition of human SNU-387 cell growth in a cell viability assay.

SW872 = test: cells; format: functional, cell-based, Homo sapiens; conditions: Homo sapiens, SW872;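 also: growth inhibition of SW872 cells, read out by a viability assay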
Description: SANGER: Inhibition of human SW872 cell growth in a cell viability assay.

8-MG-BA = test: cells; format: functional, cell-based, Homo sapiens; conditions: Homo sapiens, 8-MG-BA;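 also: growth inhibition of 8-MG-BA cells, read out with a cell viability assay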
Description: SANGER: Inhibition of human 8-MG-BA cell growth in a cell viability assay.

ABC-1 = test: cells; format: functional, cell-based, Homo sapiens; conditions: Homo sapiens, ABC-1;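 also: growth inhibition of human ABC-1 cells, read out by a cell viability assay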
Description: SANGER: Inhibition of human ABC-1 cell growth in a cell viability assay.

TGBC11TKB = test: cells; format: functional, cell-based; conditions: Homo sapiens;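 also: growth inhibition of human TGBC11TKB cells, measured by a cell viability assay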
Description: SANGER: Inhibition of human TGBC11TKB cell growth in a cell viability assay.

CFPAC-1 = test: cells; format: functional, cell-based; conditions: Homo sapiens;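 also: cell viability readout used to gauge suppression of CFPAC-1 cell proliferation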
Description: SANGER: Inhibition of human CFPAC-1 cell growth in a cell viability assay.

COLO-668 = test: cells; format: functional, cell-based, Homo sapiens; conditions: Homo sapiens, COLO-668
Description: SANGER: Inhibition of human COLO-668 cell growth in a cell viability assay.

COLO-684 = test: cells; format: functional, cell-based; conditions: Homo sapiens
Description: SANGER: Inhibition of human COLO-684 cell growth in a cell viability assay.

HCC1187 = test: cells; format: functional, cell-based, Homo sapiens; conditions: Homo sapiens, HCC1187;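 also: growth inhibition of HCC1187 cells, read out with a cell viability assay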
Description: SANGER: Inhibition of human HCC1187 cell growth in a cell viability assay.

23132-87 = test: cells; format: functional, cell-based, Homo sapiens; conditions: Homo sapiens
Description: SANGER: Inhibition of human 23132-87 cell growth in a cell viability assay.

EB2 = test: cells; format: functional, cell-based; conditions: Homo sapiens;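 also: growth inhibition of EB2 cells, read out with a cell viability assay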
Description: SANGER: Inhibition of human EB2 cell growth in a cell viability assay.

ECC4 = test: cells; format: functional, cell-based; conditions: Homo sapiens;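 also: growth inhibition of ECC4 cells, read out with a cell viability assay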
Description: SANGER: Inhibition of human ECC4 cell growth in a cell viability assay.

HCC1599 = test: cells; format: functional, cell-based; conditions: Homo sapiens;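 also: growth inhibition of HCC1599 cells, read out in a cell viability assay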
Description: SANGER: Inhibition of human HCC1599 cell growth in a cell viability assay.

IMR-5 = test: cells; format: functional, cell-based; conditions: Homo sapiens;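 also: growth inhibition of human IMR-5 cells, read out with a cell viability assay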
Description: SANGER: Inhibition of human IMR-5 cell growth in a cell viability assay.

IST-SL2 = test: cells; format: functional, cell-based; conditions: Homo sapiens;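 also: growth inhibition of human IST-SL2 cells, read out by a cell viability assay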
Description: SANGER: Inhibition of human IST-SL2 cell growth in a cell viability assay.

KARPAS-422 = test: cells; format: functional, cell-based; conditions: Homo sapiens
Description: SANGER: Inhibition of human KARPAS-422 cell growth in a cell viability assay.

LB996-RCC = test: cells; format: functional, cell-based; conditions: Homo sapiens
Description: SANGER: Inhibition of human LB996-RCC cell growth in a cell viability assay.

LC4-1 = test: cells; format: functional, cell-based; conditions: Homo sapiens;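 also: growth inhibition of LC4-1 cells, read out with a cell viability assay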
Description: SANGER: Inhibition of human LC4-1 cell growth in a cell viability assay.

LP-1 = test: cells; format: functional, cell-based; conditions: Homo sapiens;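 also: growth inhibition of human LP-1 cells, with the read-out taken from a cell viability assay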
Description: SANGER: Inhibition of human LP-1 cell growth in a cell viability assay.

MDA-MB-134-VI = test: cells; format: functional, cell-based; conditions: Homo sapiens
Description: SANGER: Inhibition of human MDA-MB-134-VI cell growth in a cell viability assay.

NCI-H187 = test: cells; format: functional, cell-based; conditions: Homo sapiens;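 also: growth inhibition of NCI-H187 cells, read out as cell viability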
Description: SANGER: Inhibition of human NCI-H187 cell growth in a cell viability assay.

NCI-H1882 = test: cells; format: functional, cell-based; conditions: Homo sapiens;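 also: growth inhibition of the cell line, determined with a viability assay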
Description: SANGER: Inhibition of human NCI-H1882 cell growth in a cell viability assay.

NCI-H1963 = test: cells; format: functional, cell-based; conditions: Homo sapiens;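 also: cell growth inhibition of the human line, determined with a cell viability assay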
Description: SANGER: Inhibition of human NCI-H1963 cell growth in a cell viability assay.

NCI-H716 = test: cells; format: functional, cell-based; conditions: Homo sapiens;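 also: growth inhibition of human NCI-H716 cells, measured by a cell viability assay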
Description: SANGER: Inhibition of human NCI-H716 cell growth in a cell viability assay.

SNU-16 = test: cells; format: functional, cell-based; conditions: Homo sapiens;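 also: growth inhibition of human SNU-16 cells, determined with a cell viability readout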
Description: SANGER: Inhibition of human NCI-SNU-16 cell growth in a cell viability assay.

PF-382 = test: cells; format: functional, cell-based; conditions: Homo sapiens
Description: SANGER: Inhibition of human PF-382 cell growth in a cell viability assay.

RL = test: cells; format: functional, cell-based; conditions: Homo sapiens
Description: SANGER: Inhibition of human RL cell growth in a cell viability assay.

RL95-2 = test: cells; format: functional, cell-based; conditions: Homo sapiens;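 also: RL95-2 growth inhibition determined through a cell viability readout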
Description: SANGER: Inhibition of human RL95-2 cell growth in a cell viability assay.

RPMI-6666 = test: cells; format: functional, cell-based; conditions: Homo sapiens
Description: SANGER: Inhibition of human RPMI-6666 cell growth in a cell viability assay.

Raji = test: cells; format: functional, cell-based; conditions: Homo sapiens;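 also: cell viability assay measuring inhibition of Raji cell growth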
Description: SANGER: Inhibition of human Raji cell growth in a cell viability assay.

SIG-M5 = test: cells; format: functional, cell-based; conditions: Homo sapiens;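 also: cell viability assay read-out, measuring how strongly growth of cultured human SIG-M5 cells is inhibited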
Description: SANGER: Inhibition of human SIG-M5 cell growth in a cell viability assay.

SU-DHL-1 = test: SANGER: Inhibition of human SU-DHL-1 cell growth in a cell viability assay.; format: functional, cell-based
UACC-812 = test: cells; format: functional, cell-based; conditions: Homo sapiens
Description: SANGER: Inhibition of human UACC-812 cell growth in a cell viability assay.

WSU-NHL = test: cells; format: functional, cell-based; conditions: Homo sapiens;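 also: growth inhibition of human WSU-NHL cells, read out with a cell viability assay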
Description: SANGER: Inhibition of human WSU-NHL cell growth in a cell viability assay.

YT = test: cells; format: functional, cell-based; conditions: Homo sapiens
Description: SANGER: Inhibition of human YT cell growth in a cell viability assay.

CMK = test: cells; format: functional, cell-based; conditions: Homo sapiens;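 also: growth inhibition of CMK cells, read out as cell viability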
Description: SANGER: Inhibition of human CMK cell growth in a cell viability assay.

Measured: IC50

CN(Cc1cnc2nc(N)nc(N)c2n1)c1ccc(C(=O)N[C@@H](CCC(=O)O)C(=O)O)cc1 [METHOTREXATE]
> 0.2 µM: D-263MG | EC-GI-10 | EFO-21 | EPLC-272H | FaDu | GCIY | H-EMC-SS | HSC-3 | IGR-1 | KNS-62 | L-428 | NCI-H1573 | NCI-H1666 | NCI-H2342 | RPMI-2650 | SCC-4 | SNU-387 | SW872 | 8-MG-BA | ABC-1 | TGBC11TKB | CFPAC-1 | COLO-668
57.1 nM: EM-2
29.6 nM: NBsusSR
69.4 nM: SBC-5
37.5 nM: COLO-684

Cn1cc(C2=C(c3ccc(Cl)cc3Cl)C(=O)NC2=O)c2ccccc21 [SB-216763]
> 10 µM: D-263MG | EC-GI-10 | EFO-21 | EPLC-272H | FaDu | GCIY | H-EMC-SS | HCC1187 | HSC-3 | IGR-1 | KNS-62 | L-428 | NCI-H1573 | NCI-H1666 | NCI-H2342 | RPMI-2650 | SCC-4 | SNU-387 | SW872 | 23132-87 | 8-MG-BA | ABC-1 | TGBC11TKB | CFPAC-1 | COLO-668
> 10000 nM: EM-2 | NBsusSR | SBC-5 | COLO-684

CNC(=O)c1cc(Oc2ccc(NC(=O)Nc3ccc(Cl)c(C(F)(F)F)c3)cc2)ccn1 [SORAFENIB]
1360 nM: EM-2
> 4000 nM: COLO-684
2420 nM: SIG-M5
not listed: EFO-21 | EPLC-272H | FaDu | H-EMC-SS | HSC-3 | IGR-1 | KNS-62 | NBsusSR | NCI-H1573 | NCI-H1666 | NCI-H2342 | RPMI-2650 | SBC-5 | SCC-4 | SNU-387 | ABC-1 | TGBC11TKB | CFPAC-1 | 23132-87
> 4 µM: all other assays above
